{"source": "patent US20100086931A1", "about": "“METHOD FOR ASSAYING ACTION OF ANTITUMOR AGENT USING DECREASE IN GENE EXPRESSION LEVEL AS INDEX” (Eisai R&D Management Co., Ltd., priority 2007, published 2010)", "system": "peripheral blood mononuclear cells (PBMC)", "assay": "Microarray analysis (Human Genome U133 plus 2.0 array) of mRNA expression in PBMC treated with compound A", "assay_type": "cell-based", "details": "10 nM, ratio to control", "source_text": "Since it is not easy to obtain a cancer tissue clinically, the measurement of the marker in hemocytes readily obtainable in peripheral blood would be more useful. Specifically blood was taken from a normal individual (volunteer) and peripheral blood mononuclear cells were purified and treated with compound A, followed by measurement of change in expression of the gene (mRNA) with the microarray (Human Genome […] plus 2.0 array: Affymetrix).\nFicoll-Paque PLUS solution (Amersham, 17-1440-02) was slowly added to the blood taken (with heparin added) from a healthy individual to form a layer underneath the blood (15 ml of Ficoll-Paque PLUS solution was added to 25 ml of blood). After the mixture was centrifuged at 1500 rpm for 30 min, the upper part containing platelets was removed and then a layer containing mononuclear cells was transferred to another tube. The cells were suspended in PBS and centrifuged at 1500 rpm for 5 min, followed by removal of the supernatant. After these steps were repeated twice, the cells were again suspended in RPMI1640 (containing 10% FBS). The number of the cells was then counted.\nThe cells were suspended in the medium to 5×10^6 cells/ml and plated 1 ml per well of a 24-well plate. Immediately, 111 μl of compound A (ten times more concentrated than the final concentrations) was added to the well (four wells per each concentration tested). The cells were then cultured in an incubator with 5% carbon dioxide gas at 37° C. Two or four hours later, the supernatant was collected and centrifuged at 1500 rpm for five minutes. TRI reagent (SIGMA) (1 ml) was added to each well of the plate from which the supernatant was removed to harvest the cells, which was added to the centrifuged pellet to dissolve. RNA was purified in accordance with the protocol of TRI reagent. RNA was further purified using RNeasy (QIAGEN). Absorbance at 260 nm was measured to quantify an amount of RNA.\nA .cel file for each sample was obtained by using GeneChip Operating Software Ver.1.2 (Affymetrix). The RMA method was applied to ten of the .cel files obtained in the microarray experiment. Log signal intensity at a gene level was obtained by normalization of that at a probe level. By subtracting a control value from log signal intensity for each case, the log signal intensity was converted into a log signal ratio to the control. Genes were narrowed down in the basis of a log signal ratio, and a signal value. Specifically, among genes showing that the P value was 5% or less; the expression level in the untreated (control) is 100 or more by signal value; and the expression level when treated with 10 nM of compound A both for two and four hours decreased by 50% or more, genes of which expression level decreased to 25% or less upon the two-hour treatment were picked out. The software used is R2.2.1 (http://www.r-project.org/), affy package 1.8.1 (http://www.bioconductor.org).\nAmong genes showing, upon the treatment with compound A, that the P value was 5% or less; the expression level in the untreated (control) is 100 or more by signal value; and the expression level when treated with 10 nM of compound A both for two and four hours decreased by 50% or more, genes of which expression level decreased to 25% or less upon the two-hour treatment, and results thereof were shown in Table 2. For each gene evaluated, gene name (Gene Name), abbreviated name (Gene Symbol), accession number (Accession), alias name (Synonym), Probe set number in Human Genome U133 Plus 2.0 Array (Human Genome U133 Plus 2.0 Array Probeset ID), the expression level upon the two-hour treatment with E7107 (E7107 (2 h)), and the expression level upon the four-hour treatment with E7107 (E7107 (4 h)) were respectively shown in Table 2."}
{"smiles": "CCC(O)C(C)C1OC1CC(C)(O)/C=C/C=C(\\C)C1OC(=O)CC(O)CCC(C)(O)C(OC(=O)N2CCN(C3CCCCCC3)CC2)/C=C/C1C", "note": "(stereo not drawn) [E7107, (8E,12E,14E)-7-((4-Cycloheptylpiperazin-1-yl)carbonyl)oxy-3,6,16,21-tetrahydroxy-6,10,12,16,20-pentamethyl-18,19-epoxytricosa-8,12,14-trien-11-olide]", "values": [{"measurement": "AHSA2 mRNA expression level (226665_at)", "setting": "2 h", "result": 0.21}, {"measurement": "ATXN1 mRNA expression level (242230_at)", "setting": "2 h", "result": 0.25}, {"measurement": "C13orf31 mRNA expression level (228937_at)", "setting": "2 h", "result": 0.19}, {"measurement": "C15orf48 mRNA expression level (223484_at)", "setting": "2 h", "result": 0.06}, {"measurement": "CCRL2//LOC642312 mRNA expression level (211434_s_at)", "setting": "2 h", "result": 0.22}, {"measurement": "CLEC5A mRNA expression level (219890_at)", "setting": "2 h", "result": 0.08}, {"measurement": "CSF2RA mRNA expression level (210340_s_at)", "setting": "2 h", "result": 0.10}, {"measurement": "CTSL1 mRNA expression level (202087_s_at)", "setting": "2 h", "result": 0.21}, {"measurement": "DHRS9 mRNA expression level (223952_x_at)", "setting": "2 h", "result": 0.25}, {"measurement": "DOK3 mRNA expression level (223553_s_at)", "setting": "2 h", "result": 0.23}, {"measurement": "FPRL2 mRNA expression level (230422_at)", "setting": "2 h", "result": 0.06}, {"measurement": "GNA15 mRNA expression level (205349_at)", "setting": "2 h", "result": 0.22}, {"measurement": "GPR84 mRNA expression level (223767_at)", "setting": "2 h", "result": 0.18}, {"measurement": "GTF2H1 mRNA expression level (202451_at)", "setting": "2 h", "result": 0.18}, {"measurement": "HNRPA2B1 mRNA expression level (225107_at)", "setting": "2 h", "result": 0.23}, {"measurement": "HPSE mRNA expression level (222881_at)", "setting": "2 h", "result": 0.18}, {"measurement": "IQCG mRNA expression level (235347_at)", "setting": "2 h", "result": 0.24}, {"measurement": "LOC51315 mRNA expression level (233329_s_at)", "setting": "2 h", "result": 0.21}, {"measurement": "MS4A7 mRNA expression level (224358_s_at)", "setting": "2 h", "result": 0.24}, {"measurement": "NLRP12 mRNA expression level (1554952_s_at)", "setting": "2 h", "result": 0.23}, {"measurement": "NRIP3 mRNA expression level (219557_s_at)", "setting": "2 h", "result": 0.07}, {"measurement": "NSMCE4A mRNA expression level (228506_at)", "setting": "2 h", "result": 0.24}, {"measurement": "OLR1 mRNA expression level (210004_at)", "setting": "2 h", "result": 0.05}, {"measurement": "RAPH1 mRNA expression level (225188_at)", "setting": "2 h", "result": 0.19}, {"measurement": "RBBP6 mRNA expression level (212781_at)", "setting": "2 h", "result": 0.23}, {"measurement": "SLC25A19 mRNA expression level (223222_at)", "setting": "2 h", "result": 0.18}, {"measurement": "SLC43A2 mRNA expression level (228918_at)", "setting": "2 h", "result": 0.17}, {"measurement": "TNFAIP6 mRNA expression level (206026_s_at)", "setting": "2 h", "result": 0.19}, {"measurement": "TNS1 mRNA expression level (221748_s_at)", "setting": "2 h", "result": 0.10}, {"measurement": "TRAPPC4 mRNA expression level (217959_s_at)", "setting": "2 h", "result": 0.18}, {"measurement": "Transcribed locus mRNA expression level (230098_at)", "setting": "2 h", "result": 0.22}, {"measurement": "WSB1 mRNA expression level (201294_s_at)", "setting": "2 h", "result": 0.20}, {"measurement": "ZCCHC6 mRNA expression level (220933_s_at)", "setting": "2 h", "result": 0.17}, {"measurement": "AHSA2 mRNA expression level (226665_at)", "setting": "4 h", "result": 0.15}, {"measurement": "ATXN1 mRNA expression level (242230_at)", "setting": "4 h", "result": 0.24}, {"measurement": "C13orf31 mRNA expression level (228937_at)", "setting": "4 h", "result": 0.11}, {"measurement": "C15orf48 mRNA expression level (223484_at)", "setting": "4 h", "result": 0.01}, {"measurement": "CCRL2//LOC642312 mRNA expression level (211434_s_at)", "setting": "4 h", "result": 0.35}, {"measurement": "CLEC5A mRNA expression level (219890_at)", "setting": "4 h", "result": 0.05}, {"measurement": "CSF2RA mRNA expression level (210340_s_at)", "setting": "4 h", "result": 0.06}, {"measurement": "CTSL1 mRNA expression level (202087_s_at)", "setting": "4 h", "result": 0.13}, {"measurement": "DHRS9 mRNA expression level (223952_x_at)", "setting": "4 h", "result": 0.31}, {"measurement": "DOK3 mRNA expression level (223553_s_at)", "setting": "4 h", "result": 0.26}, {"measurement": "FPRL2 mRNA expression level (230422_at)", "setting": "4 h", "result": 0.04}, {"measurement": "GNA15 mRNA expression level (205349_at)", "setting": "4 h", "result": 0.15}, {"measurement": "GPR84 mRNA expression level (223767_at)", "setting": "4 h", "result": 0.20}, {"measurement": "GTF2H1 mRNA expression level (202451_at)", "setting": "4 h", "result": 0.07}, {"measurement": "HNRPA2B1 mRNA expression level (225107_at)", "setting": "4 h", "result": 0.20}, {"measurement": "HPSE mRNA expression level (222881_at)", "setting": "4 h", "result": 0.29}, {"measurement": "IQCG mRNA expression level (235347_at)", "setting": "4 h", "result": 0.23}, {"measurement": "LOC51315 mRNA expression level (233329_s_at)", "setting": "4 h", "result": 0.13}, {"measurement": "MS4A7 mRNA expression level (224358_s_at)", "setting": "4 h", "result": 0.04}, {"measurement": "NLRP12 mRNA expression level (1554952_s_at)", "setting": "4 h", "result": 0.26}, {"measurement": "NRIP3 mRNA expression level (219557_s_at)", "setting": "4 h", "result": 0.29}, {"measurement": "NSMCE4A mRNA expression level (228506_at)", "setting": "4 h", "result": 0.18}, {"measurement": "OLR1 mRNA expression level (210004_at)", "setting": "4 h", "result": 0.02}, {"measurement": "RAPH1 mRNA expression level (225188_at)", "setting": "4 h", "result": 0.18}, {"measurement": "RBBP6 mRNA expression level (212781_at)", "setting": "4 h", "result": 0.17}, {"measurement": "SLC25A19 mRNA expression level (223222_at)", "setting": "4 h", "result": 0.20}, {"measurement": "SLC43A2 mRNA expression level (228918_at)", "setting": "4 h", "result": 0.08}, {"measurement": "TNFAIP6 mRNA expression level (206026_s_at)", "setting": "4 h", "result": 0.06}, {"measurement": "TNS1 mRNA expression level (221748_s_at)", "setting": "4 h", "result": 0.09}, {"measurement": "TRAPPC4 mRNA expression level (217959_s_at)", "setting": "4 h", "result": 0.07}, {"measurement": "Transcribed locus mRNA expression level (230098_at)", "setting": "4 h", "result": 0.14}, {"measurement": "WSB1 mRNA expression level (201294_s_at)", "setting": "4 h", "result": 0.17}, {"measurement": "ZCCHC6 mRNA expression level (220933_s_at)", "setting": "4 h", "result": 0.08}]}
